In patent US11572532B2, “Antimicrobial composition” (The Procter & Gamble Company, priority 2019, dated 2023):
Counter-ions that a name gives are not always drawn.

Key:
Enterobacter aerogenes = assay: Minimum Biocidal Concentration (MBC) in suspension; assay type: cell-based; conditions: active in 0.5% MEA + 1.5% TEA alkaline composition, no horse serum, contact time 6 minutes; for MBC: Klebsiella aerogenes, 0.1 h, read-out: MBC (ppm) E. aerogenes
Procedure: (§1) B) Antibacterial Efficacy (Minimum Biocidal Concentration in Suspension):
(§2) The antimicrobial efficacy of the antimicrobial agent in the composition is determined by measuring its Minimum Biocidal Concentration (MBC). The MBC is defined as the lowest absolute concentration of the particular antimicrobial active which provides complete kill (zero bacterial growth).
(§3) The antimicrobial agent was added to the composition at a level of 1000 ppm, or 500 ppm, or 200 ppm, or 100 ppm or 50 ppm, depending on what the Minimum Biocidal Concentration (MBC) is. 200 μL of the antimicrobial hard surface cleaning composition was dosed into one well of row A of a 96 well microtiter plate. Each subsequent well (rows B to G) were dosed with 100 μL of the same hard surface cleaning composition, without the addition of the antimicrobial agent. 100 μL of the antimicrobial hard surface cleaning composition was transferred from row A to row B and mixed. 100 μL of the composition was then transferred from row B to row C and mixed, and the process repeated to row G. As such, the concentration of the antimicrobial agent underwent two-fold dilution in adjacent wells, while the concentration of the other actives in the hard surface cleaning composition remained constant across all the wells in the same column.
(§4) 10 μL of the 10^8CFU/ml bacteria suspension in saline was added to wells A to F of the microtiter plate with row G kept as a nil bacteria control. The final volume in each well was 110 μL, except for row G which comprised 100 μL of the hard surface cleaning composition and no bacteria suspension. Bacterial inoculation to each column was staggered by 30 seconds to allow for equal incubation times in all wells so that the contact time between the bacteria and the antimicrobial active for all samples was 6 mins. After this contact time, 10 μL of each test solution was transferred to 90 μL of neutralizer solution (Modified Letheen Broth +1.5% Polysorbate 80, supplied by BioMérieux) to stop the antimicrobial action of the antimicrobial active matching the stagger of the inoculation. 2 μL of this solution was plated onto a TSA plate matching the stagger of the inoculation so that all samples are exposed to the neutralizer for the same period of time. The plate was incubated at 32.5° C. for 48 h. MBC concentration is taken as the lowest concentration of the antimicrobial active at which no visible colony growth is observed on the TSA plate.

[1] = test system: Staphylococcus aureus (S.aureus—ATCC #6538); assay: Minimum Biocidal Concentration (MBC) in suspension; assay type: cell-based; conditions: active in 0.5% MEA + 1.5% TEA alkaline composition, no horse serum, contact time 6 minutes; for MBC: Staphylococcus aureus, ATCC6538, 0.1 h, read-out: MBC (ppm) S. aureus
Procedure: as §1, §2, §3, §4

[2] = pH measurement on the neat composition; assay type: physicochemical; conditions: composition of 0.5% MEA + 1.5% TEA with 50 ppm of the active; 25° C.
Procedure: The pH is measured on the neat composition, at 25° C., using a pH meter with compatible gel-filled pH probe (such as Sartarius PT-10P meter with Toledo probe part number 52 000 100), calibrated according to the instruction manual.

Molecule	MBC (Enterobacter aerogenes)	MBC [1]	pH [2]	MBC (ppm) E. aerogenes (Enterobacter aerogenes)	MBC (ppm) S. aureus [1]
CCCCCCCCN=c1ccn(CCCCCCCCCCn2ccc(=NCCCCCCCC)cc2)cc1 [Bispyridinium alkane, octenidine dihydrochloride]	12.5 µg/mL	3.13 µg/mL	11.4	–	–
N-alkyl dimethyl benzyl ammonium chloride	–	–	11.4	12.5 ppm	12.5 ppm
[H]/N=C(\N/C(=N/[H])NCCCCCCNC(=N)NC(=N)Nc1ccc(Cl)cc1)Nc1ccc(Cl)cc1 [Chlorhexidine]	50 µg/mL	50 µg/mL	11.2	–	–
CCCCCCCCCCCCN(CCCN)CCCN [N-(3-Aminopropyl)-N-dodecylpropane-1,3-diamine]	50 µg/mL	12.5 µg/mL	11.5	–	–
